Measured values reported in US20240360126A1, “PYRAZOLO[3,4-B]PYRIDINE COMPOUNDS FOR THE TREATMENT OF AUTOIMMUNE DISEASE” (Hoffmann-La Roche Inc., priority 2021, published 2024).

The molecules below were run against T1, TLR9 (Homo sapiens, UniProt Q9NR96) (assay: HEK293-Blue-hTLR-9 cells assay). Conditions: HEK293-Blue-hTLR9 cells, ODN2006 stimulation, 20 hrs; read-out: HEK/hTLR9 IC50.
T1 sequence (Q9NR96 26-1032): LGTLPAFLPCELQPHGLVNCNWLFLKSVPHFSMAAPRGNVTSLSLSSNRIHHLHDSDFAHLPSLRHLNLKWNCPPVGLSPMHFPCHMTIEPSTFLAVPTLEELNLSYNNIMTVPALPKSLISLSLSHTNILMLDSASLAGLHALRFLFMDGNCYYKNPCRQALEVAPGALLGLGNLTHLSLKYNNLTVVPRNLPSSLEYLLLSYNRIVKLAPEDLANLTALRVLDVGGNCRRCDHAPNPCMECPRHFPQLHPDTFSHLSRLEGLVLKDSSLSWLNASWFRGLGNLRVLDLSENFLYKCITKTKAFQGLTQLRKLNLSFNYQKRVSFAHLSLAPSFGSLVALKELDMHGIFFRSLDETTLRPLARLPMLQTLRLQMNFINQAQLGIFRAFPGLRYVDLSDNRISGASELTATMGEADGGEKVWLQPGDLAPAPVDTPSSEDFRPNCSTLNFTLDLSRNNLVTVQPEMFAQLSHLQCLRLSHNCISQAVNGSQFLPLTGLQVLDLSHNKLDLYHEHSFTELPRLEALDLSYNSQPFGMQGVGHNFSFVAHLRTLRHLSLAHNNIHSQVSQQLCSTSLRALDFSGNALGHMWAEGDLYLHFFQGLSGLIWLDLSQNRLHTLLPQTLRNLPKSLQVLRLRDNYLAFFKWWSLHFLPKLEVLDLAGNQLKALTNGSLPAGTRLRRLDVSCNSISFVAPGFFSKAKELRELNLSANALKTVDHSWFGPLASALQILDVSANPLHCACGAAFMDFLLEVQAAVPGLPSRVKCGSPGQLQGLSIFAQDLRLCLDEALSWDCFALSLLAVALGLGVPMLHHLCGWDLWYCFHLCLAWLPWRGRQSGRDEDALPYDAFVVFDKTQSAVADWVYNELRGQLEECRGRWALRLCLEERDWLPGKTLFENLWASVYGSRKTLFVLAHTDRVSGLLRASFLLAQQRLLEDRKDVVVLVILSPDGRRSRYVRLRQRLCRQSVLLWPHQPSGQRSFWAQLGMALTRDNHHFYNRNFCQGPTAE
Assay type: cell-based
Parameters: host or cells: HEK293 (HEK-Blue hTLR9)
Description: A stable HEK293-Blue-hTLR-9 cell line was purchased from InvivoGen (Cat. #: hkb-htlr9, San Diego, California, USA). These cells were originally designed for studying the stimulation of human TLR9 by monitoring the activation of NF-κB. A SEAP (secreted embryonic alkaline phosphatase) reporter gene was placed under the control of the IFN-β minimal promoter fused to five NF-κB and AP-1-binding sites. The SEAP was induced by activating NF-κB and AP-1 via stimulating HEK-Blue hTLR9 cells with TLR9 ligands. Therefore the reporter expression was declined by TLR9 antagonist under the stimulation of a ligand, such as ODN2006 (Cat. #: tlrl-2006-1, Invivogen, San Diego, California, USA), for incubation of 20 hrs. The cell culture supernatant SEAP reporter activity was determined using QiANTI-Blue™ kit (Cat. #: rep-qbl, Invivogen, San Diego, California, USA) at a wavelength of 640 nm, a detection medium that turns purple or blue in the presence of alkaline phosphatase.
HEK293-Blue-hTLR9 cells were incubated at a density of 250,000-450,000 cells/mL in a volume of 170 μL in a 96-well plate in Dulbecco's Modified Eagle's medium (DMEM) containing 4.5 g/L glucose, 50 U/mL penicillin, […], […], 10% (v/v) heat-inactivated fetal bovine serum with addition of 20 μL test compound in a serial dilution in the presence of final DMSO at 1% and 10 μL of 20 μM ODN2006 in above DMEM, perform incubation under 37° C. in a C02 incubator for 20 hrs. Then 20 μL of the supernatant from each well was incubated with 180 μl. Quanti-blue substrate solution at 37° C. for 2 h and the absorbance was read at 620˜655 nm using a spectrophotometer. The signaling pathway that TLR9 activation leads to downstream NF-κB activation has been widely accepted, and therefore similar reporter assay was modified for evaluating TLR9 antagonist.

Point of comparison: Cc1cc(N2CC[C@@H](c3ncc(N4CCOC[C@@H](N)C4)cc3C)[C@H](C)C2)c2cnn(C)c2n1 [Example 28, (6S)-4-[6-[(3S,4R)-1-(1,6-dimethylpyrazolo[3,4-b]pyridin-4-yl)-3-methyl-4-piperidyl]-5-methyl-3-pyridyl]-1,4-oxazepan-6-amine], IC50 126 nM. Against it:
- Cc1cc(N2CCC(c3cnc(N4CCNCC4)cc3C)[C@H](C)C2)c2cnn(C)c2n1 (single isomer, unassigned) [Example 20, 1,6-dimethyl-4-[cis-3-methyl-4-(4-methyl-6-piperazin-1-yl-3-pyridyl)-1-piperidyl]pyrazolo[3,4-b]pyridine] — 1.7-fold higher, 220 nM
- Cc1cc(N2CCC(c3cnc(N4CCNCC4)cc3C)[C@H](C)C2)c2cnn(C)c2n1 (single isomer, unassigned) [Example 21, 1,6-dimethyl-4-[trans-3-methyl-4-(4-methyl-6-piperazin-1-yl-3-pyridyl)-1-piperidyl]pyrazolo[3,4-b]pyridine] — 3-fold higher, 372 nM
- Cc1cc(N2CCC(c3ncc(N4CCNCC4)nc3C)[C@H](C)C2)c2cnn(C)c2n1 (single isomer, unassigned) [Example 22, 1,6-dimethyl-4-[cis-3-methyl-4-(3-methyl-5-piperazin-1-yl-pyrazin-2-yl)-1-piperidyl]pyrazolo[3,4-b]pyridine] — 2.5-fold higher, 315 nM
- Cc1cc(N2CCC(c3ncc(N4CCNCC4)nc3C)[C@H](C)C2)c2cnn(C)c2n1 (single isomer, unassigned) [Example 23, 1,6-dimethyl-4-[trans-3-methyl-4-(3-methyl-5-piperazin-1-yl-pyrazin-2-yl)-1-piperidyl]pyrazolo[3,4-b]pyridine] — 2.9-fold higher, 368 nM
- Cc1cc(N2CCC(c3ncc(N4CCNCC4)cc3C)[C@H](C)C2)c2cnn(C)c2n1 (single isomer, unassigned) [Example 24, 1,6-dimethyl-4-[cis-3-methyl-4-(3-methyl-5-piperazin-1-yl-2-pyridyl)-1-piperidyl]pyrazolo[3,4-b]pyridine] — 1.7-fold lower, 76 nM
- Cc1cc(N2CCC(c3ncc(N4CCNCC4)cc3C)[C@H](C)C2)c2cnn(C)c2n1 (single isomer, unassigned) [Example 25, 1,6-dimethyl-4-[trans-3-methyl-4-(3-methyl-5-piperazin-1-yl-2-pyridyl)-1-piperidyl]pyrazolo[3,4-b]pyridine] — within 1.5-fold, 98 nM
- Cc1cc(N2CCC(c3ccc(N4CCNCC4)cc3)CC2)c2cnn(C)c2n1 [Example 1, 1,6-dimethyl-4-[4-(4-piperazin-1-ylphenyl)-1-piperidyl]pyrazolo[3,4-b]pyridine] — 2.2-fold higher, 275 nM
- Cc1cc(N2CCC(c3ccc(N4CCNCC4)cn3)CC2)c2cnn(C)c2n1 [Example 2, 1,6-dimethyl-4-[4-(5-piperazin-1-yl-2-pyridyl)-1-piperidyl]pyrazolo[3,4-b]pyridine] — within 1.5-fold, 142 nM
- Cc1cc(N2CCC(c3cnc(N4CCNCC4)cn3)CC2)c2cnn(C)c2n1 [Example 3, 1,6-dimethyl-4-[4-(5-piperazin-1-ylpyrazin-2-yl)-1-piperidyl]pyrazolo[3,4-b]pyridine] — within 1.5-fold, 124 nM
- Cc1cc(N2CCC(c3ncc(N4CCNCC4)cn3)CC2)c2cnn(C)c2n1 [Example 4, 1,6-dimethyl-4-[4-(5-piperazin-1-ylpyrimidin-2-yl)-1-piperidyl]pyrazolo[3,4-b]pyridine] — 3-fold higher, 379 nM
- Cc1cc(N2CCNCC2)cnc1C1CCN(c2ccnc3c2cnn3C)CC1 [Example 5, 1-methyl-4-[4-(3-methyl-5-piperazin-1-yl-2-pyridyl)-1-piperidyl]pyrazolo[3,4-b]pyridine] — 2.9-fold higher, 364 nM
- Cc1cc(N2CCNCC2)ncc1C1CCN(c2ccnc3c2cnn3C)CC1 [Example 6, 1-methyl-4-[4-(4-methyl-6-piperazin-1-yl-3-pyridyl)-1-piperidyl]pyrazolo[3,4-b]pyridine] — 1.7-fold higher, 208 nM
- Cc1cc(N2CCC(c3ncc(N4CCNCC4)cc3C)CC2)c2cnn(C)c2n1 [Example 7, 1,6-dimethyl-4-[4-(3-methyl-5-piperazin-1-yl-2-pyridyl)-1-piperidyl]pyrazolo[3,4-b]pyridine] — 2.4-fold lower, 52 nM
- Cc1cc(N2CCC(c3cnc(N4CCNCC4)cc3C)CC2)c2cnn(C)c2n1 [Example 8, 1,6-dimethyl-4-[4-(4-methyl-6-piperazin-1-yl-3-pyridyl)-1-piperidyl]pyrazolo[3,4-b]pyridine] — 1.5-fold higher, 195 nM
- Cc1cc(N2CCC(c3cc(C)c(N4CCNCC4)cn3)CC2)c2cnn(C)c2n1 [Example 9, 1,6-dimethyl-4-[4-(4-methyl-5-piperazin-1-yl-2-pyridyl)-1-piperidyl]pyrazolo[3,4-b]pyridine] — within 1.5-fold, 120 nM
- Cc1cc(N2CCC(c3ccc(N4CCNCC4)nc3C)CC2)c2cnn(C)c2n1 [Example 10, 1,6-dimethyl-4-[4-(2-methyl-6-piperazin-1-yl-3-pyridyl)-1-piperidyl]pyrazolo[3,4-b]pyridine] — 1.7-fold higher, 212 nM
- Cc1cc(N2CCC(c3cnc(N4CCNCC4)nc3C)CC2)c2cnn(C)c2n1 [Example 11, 1,6-dimethyl-4-[4-(4-methyl-2-piperazin-1-yl-pyrimidin-5-yl)-1-piperidyl]pyrazolo[3,4-b]pyridine] — within 1.5-fold, 104 nM
- CCc1cc(N2CCNCC2)cnc1C1CCN(c2cc(C)nc3c2cnn3C)CC1 [Example 13, 4-[4-(3-ethyl-5-piperazin-1-yl-2-pyridyl)-1-piperidyl]-1,6-dimethyl-pyrazolo[3,4-b]pyridine] — within 1.5-fold, 168 nM
- COc1cc(N2CCNCC2)cnc1C1CCN(c2cc(C)nc3c2cnn3C)CC1 [Example 14, 4-[4-(3-methoxy-5-piperazin-1-yl-2-pyridyl)-1-piperidyl]-1,6-dimethyl-pyrazolo[3,4-b]pyridine] — 1.8-fold higher, 225 nM
- Cc1cc(N2CCC(c3ncc(N4CC[C@@H](N)[C@@H](F)C4)cc3C)CC2)c2cnn(C)c2n1 [Example 15, (3S,4R)-1-[6-[1-(1,6-dimethylpyrazolo[3,4-b]pyridin-4-yl)-4-piperidyl]-5-methyl-3-pyridyl]-3-fluoro-piperidin-4-amine] — within 1.5-fold, 130 nM
- COC[C@H]1CN(c2cnc(C3CCN(c4cc(C)nc5c4cnn5C)CC3)c(C)c2)CCN1 [Example 16, 4-[4-[5-[(3R)-3-(methoxymethyl)piperazin-1-yl]-3-methyl-2-pyridyl]-1-piperidyl]-1,6-dimethyl-pyrazolo[3,4-b]pyridine] — within 1.5-fold, 143 nM
- CO[C@H]1CN(c2cnc(C3CCN(c4cc(C)nc5c4cnn5C)CC3)c(C)c2)CC[C@@H]1N [Example 17, (3S,4S)-1-[6-[1-(1,6-dimethylpyrazolo[3,4-b]pyridin-4-yl)-4-piperidyl]-5-methyl-3-pyridyl]-3-methoxy-piperidin-4-amine] — 1.7-fold lower, 73 nM
- CO[C@@H]1CN(c2cnc([C@@H]3CCN(c4cc(C)nc5c4cnn5C)C[C@H]3C)c(C)c2)C[C@H]1N [Example 26, (3R,4R)-1-[6-[(3S,4R)-1-(1,6-dimethylpyrazolo[3,4-b]pyridin-4-yl)-3-methyl-4-piperidyl]-5-methyl-3-pyridyl]-4-methoxy-pyrrolidin-3-amine] — within 1.5-fold, 109 nM
- Cc1cc(N2CC[C@@H](c3ncc(N4CC5(CNCCO5)C4)cc3C)[C@H](C)C2)c2cnn(C)c2n1 [Example 27, 2-[6-[(3S,4R)-1-(1,6-dimethylpyrazolo[3,4-b]pyridin-4-yl)-3-methyl-4-piperidyl]-5-methyl-3-pyridyl]-5-oxa-2,8-diazaspiro[3.5]nonane] — within 1.5-fold, 184 nM
